A word on the IC50: it is the concentration needed to halve the response being measured.

For this assay, the target named is Hsp82 (Saccharomyces cerevisiae, UniProt P02829). Put plainly: Hsp82 ATPase activity, PK/LDH coupled enzymatic assay (also malachite green method). It is filed as biochemical. The settings on record: 1 μM Hsp82, 250 μM ATP, 37° C. The protocol: The […] released during the hydrolysis of ATP by the ATPase activity of Hsp82 is quantified by the malachite green method. In the presence of this reagent, formation of the inorganic phosphate-molybdate-malachite green complex occurs, which complex absorbs at a wavelength of 620 nm. The products to be evaluated are incubated in a reaction volume of 30 μl, in the presence of 1 μM Hsp82 and of […] of substrate (ATP) in a buffer composed of 50 mM Hepes-NaOH (pH 7.5), 1 mM DTT, 5 mM MgCl2 and 50 mM KCl at 37° C. for 60 minutes. In parallel, a range of inorganic phosphate between 1 and 40 μM is prepared in the same buffer. […] After incubation at ambient temperature for 20 minutes, the absorbance of the various wells is measured using a microplate reader at 620 nm. The concentration of […] of each sample is then calculated from the standard curve. The ATPase activity of Hsp82 is expressed as concentration of inorganic phosphate produced in 60 minutes. The effect of the various products tested is expressed as percentage inhibition of the ATPase activity. […]
Hsp82, sequence (P02829 whole entry): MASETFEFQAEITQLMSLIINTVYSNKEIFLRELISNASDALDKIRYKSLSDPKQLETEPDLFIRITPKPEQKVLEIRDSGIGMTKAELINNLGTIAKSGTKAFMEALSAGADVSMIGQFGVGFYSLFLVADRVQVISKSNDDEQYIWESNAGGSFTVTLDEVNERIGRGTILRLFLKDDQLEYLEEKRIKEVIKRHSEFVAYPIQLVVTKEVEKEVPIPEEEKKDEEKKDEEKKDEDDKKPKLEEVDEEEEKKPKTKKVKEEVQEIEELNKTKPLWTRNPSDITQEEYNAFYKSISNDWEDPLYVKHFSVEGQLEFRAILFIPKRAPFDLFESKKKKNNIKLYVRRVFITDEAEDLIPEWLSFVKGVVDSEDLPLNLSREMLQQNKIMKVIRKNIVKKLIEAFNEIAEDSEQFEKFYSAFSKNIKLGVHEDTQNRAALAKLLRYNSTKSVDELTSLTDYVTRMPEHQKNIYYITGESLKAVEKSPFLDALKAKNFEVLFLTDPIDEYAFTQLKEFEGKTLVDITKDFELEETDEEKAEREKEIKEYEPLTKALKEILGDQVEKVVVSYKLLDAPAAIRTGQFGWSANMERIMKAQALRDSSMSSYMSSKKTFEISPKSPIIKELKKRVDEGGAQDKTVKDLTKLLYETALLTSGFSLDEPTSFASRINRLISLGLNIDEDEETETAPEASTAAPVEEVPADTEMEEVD
The products tested are incubated in a reaction volume of 100 μl of buffer composed of 100 mM Hepes-NaOH (pH 7.5), 5 mM MgCl2, 1 mM DTT, 150 mM KCl, 0.3 mM NADH, 2.5 mM PEP and 250 μM ATP. […] The enzymatic activity of Hsp82 is then measured, continuously, in a microplate reader, at 37° C., at the wavelength of 340 nm. […]

On to `O=C1c2ccccc2C2=C(c3nc4ccncc4[nH]3)CCCN12` [Example 1, 1-{3-H-imidazo[4,5-c]pyridin-2-yl}-3,4-dihydro-2H-pyrido[2,1-a]-isoindole-6-one], for which the IC50 fell in the range of 1 to 10 µM.
The molecule `O=C1c2ccccc2C2=C(c3nc4ccc(O)cc4[nH]3)CCCN12` [Example 2, 1-{1-H-6-hydroxybenzimidazol-2-yl}-3,4-dihydro-2H-pyrido[2,1-a]isoindole-6-one] returned an IC50 of 10 to 100 µM.

The values are drawn from patent US8034939B2, “Isoindole derivatives, compositions containing same, preparation thereof and pharmaceutical uses thereof in particular as inhibitors of chaperone protein Hsp90 activities” (Aventis Pharma S.A.., priority 2005, dated 2011).
